Assay results reported in ChEMBL document CHEMBL4033677, “Design and synthesis of pyrazolo[3,4-d]pyrimidines: Nitric oxide releasing compounds targeting hepatocellular carcinoma” (Bioorg Med Chem, 2017).

Columns and labels:
Format in all cases: functional
BT-549 = assay: Growth inhibition of human BT549 cells assessed as cell growth at 10^-5 M incubated for 48 hrs by sulforhodamine B assay relative to control; settings: BT-549, 48 h, read-out: Activity
NCI-H226 = assay: Growth inhibition of human NCI-H226 cells assessed as cell growth at 10^-5 M incubated for 48 hrs by sulforhodamine B assay relative to control; settings: NCI-H226, 48 h, read-out: Activity
CAKI-1 = assay: Growth inhibition of human Caki1 cells assessed as cell growth at 10^-5 M incubated for 48 hrs by sulforhodamine B assay relative to control; settings: CAKI-1, 48 h, read-out: Activity
MCF7 = assay: Growth inhibition of human MCF7 cells assessed as cell growth at 10^-5 M incubated for 48 hrs by sulforhodamine B assay relative to control; settings: MCF7, 48 h, read-out: Activity
NCI-H522 = assay: Growth inhibition of human NCI-H522 cells assessed as cell growth at 10^-5 M incubated for 48 hrs by sulforhodamine B assay relative to control; settings: NCI-H522, 48 h, read-out: Activity
NCI-H460 = assay: Growth inhibition of human NCI-H460 cells assessed as cell growth at 10^-5 M incubated for 48 hrs by sulforhodamine B assay relative to control; settings: NCI-H460, 48 h, read-out: Activity
MDA-MB-435 = assay: Growth inhibition of human MDA-MB-435 cells assessed as cell growth at 10^-5 M incubated for 48 hrs by sulforhodamine B assay relative to control; settings: MDA-MB-435, 48 h, read-out: Activity
RXF 393 = assay: Growth inhibition of human RXF393 cells assessed as cell growth at 10^-5 M incubated for 48 hrs by sulforhodamine B assay relative to control; settings: RXF 393, 48 h, read-out: Activity
SK-OV-3 = assay: Growth inhibition of human SKOV3 cells assessed as cell growth at 10^-5 M incubated for 48 hrs by sulforhodamine B assay relative to control; settings: SK-OV-3, 48 h, read-out: Activity
COLO 205 = assay: Growth inhibition of human COLO205 cells assessed as cell growth at 10^-5 M incubated for 48 hrs by sulforhodamine B assay relative to control; settings: COLO 205, 48 h, read-out: Activity
T47D = assay: Growth inhibition of human T47D cells assessed as cell growth at 10^-5 M incubated for 48 hrs by sulforhodamine B assay relative to control; settings: read-out: Activity
MDA-MB-468 = assay: Growth inhibition of human MDA-MB-468 cells assessed as cell growth at 10^-5 M incubated for 48 hrs by sulforhodamine B assay relative to control; settings: MDA-MB-468, 48 h, read-out: Activity
HL-60(TB) = assay: Growth inhibition of human HL-60(TB) cells assessed as cell growth at 10^-5 M incubated for 48 hrs by sulforhodamine B assay relative to control; settings: HL-60, 48 h, read-out: Activity
SNB-75 = assay: Growth inhibition of human SNB75 cells assessed as cell growth at 10^-5 M incubated for 48 hrs by sulforhodamine B assay relative to control; settings: SNB-75, 48 h, read-out: Activity
ACHN = assay: Growth inhibition of human ACHN cells assessed as cell growth at 10^-5 M incubated for 48 hrs by sulforhodamine B assay relative to control; settings: read-out: Activity
OVCAR-3 = assay: Growth inhibition of human OVCAR3 cells assessed as cell growth at 10^-5 M incubated for 48 hrs by sulforhodamine B assay relative to control; settings: OVCAR-3, 48 h, read-out: Activity
SK-MEL-28 = assay: Growth inhibition of human SK-MEL-28 cells assessed as cell growth at 10^-5 M incubated for 48 hrs by sulforhodamine B assay relative to control; settings: SK-MEL-28, 48 h, read-out: Activity
KM12 = assay: Growth inhibition of human KM12 cells assessed as cell growth at 10^-5 M incubated for 48 hrs by sulforhodamine B assay relative to control; settings: KM12, 48 h, read-out: Activity
U-251 = assay: Growth inhibition of human U251 cells assessed as cell growth at 10^-5 M incubated for 48 hrs by sulforhodamine B assay relative to control; settings: U-251, 48 h, read-out: Activity
TK-10 = assay: Growth inhibition of human TK10 cells assessed as cell growth at 10^-5 M incubated for 48 hrs by sulforhodamine B assay relative to control; settings: TK-10, 48 h, read-out: Activity
UO-31 = assay: Growth inhibition of human UO31 cells assessed as cell growth at 10^-5 M incubated for 48 hrs by sulforhodamine B assay relative to control; settings: UO-31, 48 h, read-out: Activity

| Compound | growth at 10 µM (BT-549) [%] | growth at 10 µM (NCI-H226) [%] | growth at 10 µM (CAKI-1) [%] | growth at 10 µM (MCF7) [%] | growth at 10 µM (NCI-H522) [%] | growth at 10 µM (NCI-H460) [%] | growth at 10 µM (MDA-MB-435) [%] | growth at 10 µM (RXF 393) [%] | growth at 10 µM (SK-OV-3) [%] | growth at 10 µM (COLO 205) [%] | growth at 10 µM (T47D) [%] | growth at 10 µM (MDA-MB-468) [%] | growth at 10 µM (HL-60(TB)) [%] | growth at 10 µM (SNB-75) [%] | growth at 10 µM (ACHN) [%] | growth at 10 µM (OVCAR-3) [%] | growth at 10 µM (SK-MEL-28) [%] | growth at 10 µM (KM12) [%] | growth at 10 µM (U-251) [%] | growth at 10 µM (TK-10) [%] | also measured |
| --- | --- | --- | --- | --- | --- | --- | --- | --- | --- | --- | --- | --- | --- | --- | --- | --- | --- | --- | --- | --- | --- |
| Cc1nc(Nc2ccc(OCCCBr)cc2)c2cnn(-c3ccccc3)c2n1 | 92.9 | 81.1 | 93.6 | 82.4 | 81.6 | 95.1 | 107 | 104 | 82.9 | 106 | 83.6 | 98.9 | 97.6 | 88.7 | 103 | 106 | 107 | 98.3 | 81.4 | 113 | growth at 10 µM (UO-31): 88.2% |
| BrCCCOc1ccc(Nc2ncnc3c2cnn3-c2ccccc2)cc1 | 93.4 | 84.1 | 98.2 | 88.8 | 78.4 | 107 | 101 | 105 | 90.2 | 103 | 84.2 | 99.7 | 95.8 | 93.3 | 96.5 | 97 | 107 | 88.9 | 94.6 | 128 | growth at 10 µM (UO-31): 75.8% |
| Cc1nc(Nc2ccc(OCCCBr)cc2)c2c(C)nn(-c3ccccc3)c2n1 | 91.6 | 90 | 94.8 | 90.3 | 76.1 | 113 | 100 | 97.9 | 96 | 108 | 83.5 | 95 | 96.2 | 105 | 108 | 107 | 105 | 96.6 | 90.5 | 94.5 | growth at 10 µM (UO-31): 95.7% |
| Cc1nn(-c2ccccc2)c2ncnc(Nc3ccc(OCCCBr)cc3)c12 | 97.8 | 101 | 92.1 | 93.8 | 45.6 | 123 | 100 | 102 | 81 | 105 | 84.8 | 95.5 | 104 | 115 | 109 | 103 | 101 | 99.6 | 89 | 89.9 | growth at 10 µM (UO-31): 92.4% |
